Values quoted from earlier work, collected in patent US6825217B2, “Carbinols for the treatment of neuropathic dysfunction” (Endo Pharmaceuticals, Inc., priority 2001, dated 2004).

Conditions: rat, in vivo; cited from earlier work

## CSCC[C@@H]1NC(=O)[C@H](CC(C)C)NC(=O)[C@H](CCCNC(=N)N)NC(=O)[C@H](CO)NC(=O)[C@@H]2CSSC[C@@H]3NC(=O)[C@H](CO)NC(=O)CNC(=O)[C@H]([C@@H](C)O)NC(=O)[C@H](CSSC[C@H](N)C(=O)N[C@@H](CCCCN)C(=O)NCC(=O)N[C@@H](CCCCN)C(=O)NCC(=O)N[C@@H](C)C(=O)N[C@@H](CCCCN)C(=O)N2)NC(=O)[C@H](CSSC[C@@H](C(N)=O)NC(=O)[C@H](CCCCN)NC(=O)CNC(=O)[C@H](CO)NC(=O)[C@H](CCCNC(=N)N)NC3=O)NC(=O)[C@H](CC(=O)O)NC(=O)[C@H](Cc2ccc(O)cc2)NC1=O [SNX-111]
  duration of reduction of heat hyperalgesia and mechanical allodynia: at least three hours
  heat hyperalgesia: reduced
  mechanical allodynia: reduced
  mechanical hyperalgesia: no effect
  responses to sensory stimuli, thermal or mechanical: no effect
